From the kinase profiling compilation of Christmann-Franck et al. (2016)

Columns and labels:
Assay in all cases: radiometric filter-binding kinase assay
SYK (human) = SYK (human) (UniProt P43405); details: compound 100.0 µM; ATP 20 µM
IKBKE (human) = IKBKE (human) (UniProt Q14164); details: compound 100.0 µM; ATP 50 µM
IGF1R (human) = IGF1R (human) (UniProt P08069); details: compound 100.0 µM; ATP 5 µM
MAP3K11 (human) = MAP3K11 (human) (UniProt Q16584); details: compound 100.0 µM; ATP 20 µM
PRKCZ (human) = PRKCZ (human) (UniProt Q05513); details: compound 100.0 µM; ATP 5 µM
HIPK2 (human) = HIPK2 (human) (UniProt Q9H2X6); details: compound 100.0 µM; ATP 5 µM
CaMK1 (human) = CaMK1 (human) (UniProt Q14012); details: compound 100.0 µM; ATP 50 µM
[1] = molecular target: PRKAA1 PRKAB2 PRKAG1 (human) (UniProt O43741+Q13131+P54619); details: compound 100.0 µM; ATP 20 µM
HIPK1 (human) = HIPK1 (human) (UniProt Q86Z02); details: compound 100.0 µM; ATP 20 µM
MAPK12 (human) = MAPK12 (human) (UniProt P53778); details: compound 100.0 µM; ATP 5 µM
EPHA2 (human) = EPHA2 (human) (UniProt P29317); details: compound 100.0 µM; ATP 50 µM
MAP3K7 TAB1 (human) = MAP3K7 TAB1 (human) (UniProt Q15750+O43318); details: compound 100.0 µM; ATP 5 µM
MELK (human) = MELK (human) (UniProt Q14680); details: compound 100.0 µM; ATP 50 µM
CAMKK2 (human) = CAMKK2 (human) (UniProt Q96RR4); details: compound 100.0 µM; ATP 20 µM
STK33 (human) = STK33 (human) (UniProt Q9BYT3); details: compound 100.0 µM; ATP 50 µM
MARK2 (human) = MARK2 (human) (UniProt Q7KZI7); details: compound 100.0 µM; ATP 20 µM
PIM2 (human) = PIM2 (human) (UniProt Q9P1W9); details: compound 100.0 µM; ATP 5 µM
[2] = molecular target: STK11 CAB39 STRADA (human) (UniProt Q9Y376+Q7RTN6+Q15831); details: compound 100.0 µM; ATP 20 µM
NEK6 (human) = NEK6 (human) (UniProt Q9HC98); details: compound 100.0 µM; ATP 50 µM
MST4 (human) = MST4 (human) (UniProt Q9P289); details: compound 100.0 µM; ATP 20 µM
MAPK1 (human) = MAPK1 (human) (UniProt P28482); details: compound 100.0 µM; ATP 20 µM
INSRR (human) = INSRR (human) (UniProt P14616); details: compound 100.0 µM; ATP 5 µM
MAPK10 (human) = MAPK10 (human) (UniProt P53779); details: compound 100.0 µM; ATP 20 µM
EPHB3 (human) = EPHB3 (human) (UniProt P54753); details: compound 100.0 µM; ATP 20 µM
CDK2 CCNA2 (human) = CDK2 CCNA2 (human) (UniProt P20248+P24941); details: compound 100.0 µM; ATP 20 µM
PRKCA (human) = PRKCA (human) (UniProt P17252); details: compound 100.0 µM; ATP 20 µM
NTRK1 (human) = NTRK1 (human) (UniProt P04629); details: compound 100.0 µM; ATP 20 µM
EPHB1 (human) = EPHB1 (human) (UniProt P54762); details: compound 100.0 µM; ATP 20 µM
INSR (human) = INSR (human) (UniProt P06213); details: compound 100.0 µM; ATP 20 µM
GSK3B (human) = GSK3B (human) (UniProt P49841); details: compound 100.0 µM; ATP 5 µM
IKBKB (human) = IKBKB (human) (UniProt O14920); details: compound 100.0 µM; ATP 5 µM
PAK4 (human) = PAK4 (human) (UniProt O96013); details: compound 100.0 µM; ATP 5 µM
BRSK2 (human) = BRSK2 (human) (UniProt Q8IWQ3); details: compound 100.0 µM; ATP 50 µM
PKN2 (human) = PKN2 (human) (UniProt Q16513); details: compound 100.0 µM; ATP 5 µM
CLK2 (human) = CLK2 (human) (UniProt P49760); details: compound 100.0 µM; ATP 5 µM

Sequence of EPHB1 (human) (P54762 whole entry, looked up): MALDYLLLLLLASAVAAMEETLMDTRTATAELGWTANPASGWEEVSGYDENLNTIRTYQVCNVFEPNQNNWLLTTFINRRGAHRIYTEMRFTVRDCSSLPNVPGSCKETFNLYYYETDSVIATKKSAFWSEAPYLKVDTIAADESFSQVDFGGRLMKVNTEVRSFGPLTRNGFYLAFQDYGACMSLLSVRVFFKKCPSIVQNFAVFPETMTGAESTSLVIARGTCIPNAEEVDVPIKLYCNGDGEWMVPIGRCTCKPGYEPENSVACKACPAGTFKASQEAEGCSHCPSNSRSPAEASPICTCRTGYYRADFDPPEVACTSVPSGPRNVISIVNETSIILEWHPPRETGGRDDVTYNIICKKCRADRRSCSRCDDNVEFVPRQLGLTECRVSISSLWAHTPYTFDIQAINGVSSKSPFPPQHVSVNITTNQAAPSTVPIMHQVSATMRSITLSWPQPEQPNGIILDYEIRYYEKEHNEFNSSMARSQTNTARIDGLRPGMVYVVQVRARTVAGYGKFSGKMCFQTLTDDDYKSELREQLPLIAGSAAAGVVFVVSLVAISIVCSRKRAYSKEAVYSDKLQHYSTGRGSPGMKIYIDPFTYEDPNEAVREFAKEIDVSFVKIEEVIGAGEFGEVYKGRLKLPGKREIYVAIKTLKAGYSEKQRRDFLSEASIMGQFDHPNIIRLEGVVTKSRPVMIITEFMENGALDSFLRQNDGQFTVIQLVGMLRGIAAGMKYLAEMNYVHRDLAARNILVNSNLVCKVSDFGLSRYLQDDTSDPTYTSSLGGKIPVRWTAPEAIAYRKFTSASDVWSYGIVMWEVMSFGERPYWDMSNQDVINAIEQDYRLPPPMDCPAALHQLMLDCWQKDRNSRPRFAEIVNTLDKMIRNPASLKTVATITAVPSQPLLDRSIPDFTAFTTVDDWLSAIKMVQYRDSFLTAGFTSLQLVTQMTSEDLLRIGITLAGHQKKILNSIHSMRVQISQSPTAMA
Sequence of PKN2 (human) (Q16513 whole entry, looked up): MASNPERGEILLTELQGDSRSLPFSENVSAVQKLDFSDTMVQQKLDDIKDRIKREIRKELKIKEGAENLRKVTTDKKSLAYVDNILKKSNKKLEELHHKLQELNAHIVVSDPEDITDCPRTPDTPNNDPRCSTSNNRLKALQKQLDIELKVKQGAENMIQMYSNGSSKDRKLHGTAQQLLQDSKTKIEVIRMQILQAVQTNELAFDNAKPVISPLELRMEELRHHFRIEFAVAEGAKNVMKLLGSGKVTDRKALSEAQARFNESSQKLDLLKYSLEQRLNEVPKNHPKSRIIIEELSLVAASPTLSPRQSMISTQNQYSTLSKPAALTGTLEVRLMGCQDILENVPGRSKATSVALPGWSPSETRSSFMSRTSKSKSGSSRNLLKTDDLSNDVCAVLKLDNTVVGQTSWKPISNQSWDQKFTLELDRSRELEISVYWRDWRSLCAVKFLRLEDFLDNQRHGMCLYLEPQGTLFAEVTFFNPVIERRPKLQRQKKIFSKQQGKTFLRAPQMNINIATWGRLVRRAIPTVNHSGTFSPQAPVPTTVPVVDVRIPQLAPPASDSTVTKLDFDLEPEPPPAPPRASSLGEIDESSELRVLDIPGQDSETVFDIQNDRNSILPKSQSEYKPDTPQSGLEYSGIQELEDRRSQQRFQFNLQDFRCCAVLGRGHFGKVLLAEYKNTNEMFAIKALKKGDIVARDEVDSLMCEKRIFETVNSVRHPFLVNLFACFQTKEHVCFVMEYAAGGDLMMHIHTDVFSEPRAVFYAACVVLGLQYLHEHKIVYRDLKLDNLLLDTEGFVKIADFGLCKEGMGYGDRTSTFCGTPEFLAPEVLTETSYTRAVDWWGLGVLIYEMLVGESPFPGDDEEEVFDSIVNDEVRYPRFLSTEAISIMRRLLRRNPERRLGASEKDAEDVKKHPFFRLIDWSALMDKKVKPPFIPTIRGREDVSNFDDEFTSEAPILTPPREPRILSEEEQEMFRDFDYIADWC
Sequence of STK11 CAB39 STRADA (human) (Q15831 whole entry, looked up): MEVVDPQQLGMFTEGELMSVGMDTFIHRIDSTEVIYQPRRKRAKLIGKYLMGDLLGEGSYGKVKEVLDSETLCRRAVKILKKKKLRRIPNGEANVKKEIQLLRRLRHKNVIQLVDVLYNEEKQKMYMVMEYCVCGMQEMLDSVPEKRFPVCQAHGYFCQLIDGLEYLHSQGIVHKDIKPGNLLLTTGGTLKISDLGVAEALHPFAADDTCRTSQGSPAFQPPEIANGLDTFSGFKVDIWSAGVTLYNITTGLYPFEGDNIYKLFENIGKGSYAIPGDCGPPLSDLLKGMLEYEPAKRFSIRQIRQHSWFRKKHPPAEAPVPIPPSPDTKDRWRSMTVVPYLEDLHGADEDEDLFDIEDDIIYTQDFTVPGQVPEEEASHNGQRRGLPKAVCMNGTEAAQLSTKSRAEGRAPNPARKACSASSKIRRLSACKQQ
Sequence of STK11 CAB39 STRADA (human) (Q7RTN6 whole entry, looked up): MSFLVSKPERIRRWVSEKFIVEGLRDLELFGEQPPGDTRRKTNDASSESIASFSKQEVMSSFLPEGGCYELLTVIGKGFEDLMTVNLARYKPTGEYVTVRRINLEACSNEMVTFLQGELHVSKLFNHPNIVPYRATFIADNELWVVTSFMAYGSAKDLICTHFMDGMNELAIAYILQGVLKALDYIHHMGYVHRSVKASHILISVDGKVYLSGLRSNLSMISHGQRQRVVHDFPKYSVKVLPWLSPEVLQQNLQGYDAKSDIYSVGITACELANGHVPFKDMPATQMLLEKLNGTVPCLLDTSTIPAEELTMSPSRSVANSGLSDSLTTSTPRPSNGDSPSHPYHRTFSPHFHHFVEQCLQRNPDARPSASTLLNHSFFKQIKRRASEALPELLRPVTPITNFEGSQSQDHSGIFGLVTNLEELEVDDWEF
Sequence of STK11 CAB39 STRADA (human) (Q9Y376 whole entry, looked up): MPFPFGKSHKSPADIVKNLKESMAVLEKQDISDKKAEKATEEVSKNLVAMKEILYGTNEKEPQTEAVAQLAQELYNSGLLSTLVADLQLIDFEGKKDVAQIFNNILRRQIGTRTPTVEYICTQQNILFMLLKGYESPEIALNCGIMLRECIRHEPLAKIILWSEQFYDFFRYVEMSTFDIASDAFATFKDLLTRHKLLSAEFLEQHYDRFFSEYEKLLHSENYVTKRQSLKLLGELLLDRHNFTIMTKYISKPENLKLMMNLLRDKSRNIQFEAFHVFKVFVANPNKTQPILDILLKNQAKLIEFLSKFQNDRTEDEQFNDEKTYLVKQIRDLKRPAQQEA
Sequence of CAMKK2 (human) (Q96RR4 whole entry, looked up): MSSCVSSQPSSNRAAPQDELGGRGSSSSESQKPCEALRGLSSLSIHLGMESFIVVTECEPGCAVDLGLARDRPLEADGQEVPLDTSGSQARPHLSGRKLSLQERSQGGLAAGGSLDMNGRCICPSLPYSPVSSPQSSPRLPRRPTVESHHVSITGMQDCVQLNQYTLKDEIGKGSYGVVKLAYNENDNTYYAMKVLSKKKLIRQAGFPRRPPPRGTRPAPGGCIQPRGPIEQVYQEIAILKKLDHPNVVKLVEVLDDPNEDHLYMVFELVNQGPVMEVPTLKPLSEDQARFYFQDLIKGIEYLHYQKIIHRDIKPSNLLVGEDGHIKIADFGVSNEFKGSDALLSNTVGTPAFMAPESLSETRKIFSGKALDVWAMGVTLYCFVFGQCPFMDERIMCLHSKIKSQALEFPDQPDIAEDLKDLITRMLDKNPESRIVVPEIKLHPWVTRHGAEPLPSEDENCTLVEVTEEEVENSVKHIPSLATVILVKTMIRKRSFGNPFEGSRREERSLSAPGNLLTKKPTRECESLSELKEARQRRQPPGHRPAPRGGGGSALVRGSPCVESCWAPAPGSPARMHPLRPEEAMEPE
Sequence of GSK3B (human) (P49841 whole entry, looked up): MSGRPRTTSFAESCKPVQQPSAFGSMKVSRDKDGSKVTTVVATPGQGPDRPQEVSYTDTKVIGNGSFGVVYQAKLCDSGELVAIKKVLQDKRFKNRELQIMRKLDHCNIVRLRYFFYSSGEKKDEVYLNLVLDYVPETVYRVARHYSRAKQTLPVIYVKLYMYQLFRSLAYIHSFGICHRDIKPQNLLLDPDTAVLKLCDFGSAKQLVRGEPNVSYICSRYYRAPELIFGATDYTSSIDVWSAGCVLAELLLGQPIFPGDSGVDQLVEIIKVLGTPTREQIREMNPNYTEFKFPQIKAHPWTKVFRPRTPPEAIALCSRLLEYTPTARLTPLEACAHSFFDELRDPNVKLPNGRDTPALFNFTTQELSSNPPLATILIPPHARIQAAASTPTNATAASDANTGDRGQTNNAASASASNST

Compound `Nc1cnc2c(-c3c(F)cccc3F)cccn2c1=O` has an inhibition (SYK (human)) of 30%, an inhibition (IKBKE (human)) of 13% and an inhibition (IGF1R (human)) of 85%. The inhibition (MAP3K11 (human)) was 63%, the inhibition (PRKCZ (human)) was 0% and the inhibition (HIPK2 (human)) was 18%. For the same compound, the inhibition (CaMK1 (human)) was 60%, the inhibition [1] was 40% and the inhibition (HIPK1 (human)) was 11%. The inhibition (MAPK12 (human)) was 17%, the inhibition (EPHA2 (human)) was 33% and the inhibition (MAP3K7 TAB1 (human)) was 80%. The inhibition (MELK (human)) was 43%, the inhibition (CAMKK2 (human)) was 0% and the inhibition (STK33 (human)) was 4%. It also gave an inhibition (MARK2 (human)) of 53%, an inhibition (PIM2 (human)) of 21% and an inhibition [2] of 62%. For the same compound, the inhibition (NEK6 (human)) was 0%, the inhibition (MST4 (human)) was 77% and the inhibition (MAPK1 (human)) was 13%. The inhibition (INSRR (human)) was 51%, the inhibition (MAPK10 (human)) was 33% and the inhibition (EPHB3 (human)) was 42%. For the same compound, the inhibition (CDK2 CCNA2 (human)) was 88%, the inhibition (PRKCA (human)) was 36% and the inhibition (NTRK1 (human)) was 88%. It also gave an inhibition (EPHB1 (human)) of 0%, an inhibition (INSR (human)) of 88% and an inhibition (GSK3B (human)) of 51%. The inhibition (IKBKB (human)) was 66%, the inhibition (PAK4 (human)) was 50% and the inhibition (BRSK2 (human)) was 43%. The inhibition (PKN2 (human)) was 73% and the inhibition (CLK2 (human)) was 91%.
Compound `O=C(Nc1cnc2[nH]cnn2c1=O)c1ccccc1` has an inhibition (SYK (human)) of 0%, an inhibition (IKBKE (human)) of 0% and an inhibition (IGF1R (human)) of 0%. For the same compound, the inhibition (MAP3K11 (human)) was 0%, the inhibition (PRKCZ (human)) was 0% and the inhibition (HIPK2 (human)) was 0%. The inhibition (CaMK1 (human)) was 6%, the inhibition [1] was 0% and the inhibition (HIPK1 (human)) was 0%. For the same compound, the inhibition (MAPK12 (human)) was 0%, the inhibition (EPHA2 (human)) was 0% and the inhibition (MAP3K7 TAB1 (human)) was 15%. The inhibition (MELK (human)) was 0%, the inhibition (CAMKK2 (human)) was 0% and the inhibition (STK33 (human)) was 0%. For the same compound, the inhibition (MARK2 (human)) was 0%, the inhibition (PIM2 (human)) was 0% and the inhibition [2] was 0%. It also gave an inhibition (NEK6 (human)) of 0%, an inhibition (MST4 (human)) of 0% and an inhibition (MAPK1 (human)) of 4%. The inhibition (INSRR (human)) was 0%, the inhibition (MAPK10 (human)) was 0% and the inhibition (EPHB3 (human)) was 0%. The inhibition (CDK2 CCNA2 (human)) was 0%, the inhibition (PRKCA (human)) was 0% and the inhibition (NTRK1 (human)) was 0%. For the same compound, the inhibition (EPHB1 (human)) was 1%, the inhibition (INSR (human)) was 0% and the inhibition (GSK3B (human)) was 0%. It also gave an inhibition (IKBKB (human)) of 0%, an inhibition (PAK4 (human)) of 3% and an inhibition (BRSK2 (human)) of 22%. For the same compound, the inhibition (PKN2 (human)) was 0% and the inhibition (CLK2 (human)) was 0%.
Work on `CC1CN(c2nc3ccccn3c(=O)c2N)CC(C)O1` (stereo not given) yielded an inhibition (SYK (human)) of 13%, an inhibition (IKBKE (human)) of 0% and an inhibition (IGF1R (human)) of 0%. It also gave an inhibition (MAP3K11 (human)) of 0%, an inhibition (PRKCZ (human)) of 0% and an inhibition (HIPK2 (human)) of 0%. The inhibition (CaMK1 (human)) was 35%, the inhibition [1] was 2% and the inhibition (HIPK1 (human)) was 0%. The inhibition (MAPK12 (human)) was 1%, the inhibition (EPHA2 (human)) was 0% and the inhibition (MAP3K7 TAB1 (human)) was 0%. It also gave an inhibition (MELK (human)) of 7%, an inhibition (CAMKK2 (human)) of 0% and an inhibition (STK33 (human)) of 8%. It also gave an inhibition (MARK2 (human)) of 13%, an inhibition (PIM2 (human)) of 19% and an inhibition [2] of 0%. For the same compound, the inhibition (NEK6 (human)) was 0%, the inhibition (MST4 (human)) was 2% and the inhibition (MAPK1 (human)) was 12%. It also gave an inhibition (INSRR (human)) of 1%, an inhibition (MAPK10 (human)) of 9% and an inhibition (EPHB3 (human)) of 0%. For the same compound, the inhibition (CDK2 CCNA2 (human)) was 8%, the inhibition (PRKCA (human)) was 15% and the inhibition (NTRK1 (human)) was 37%. It also gave an inhibition (EPHB1 (human)) of 0%, an inhibition (INSR (human)) of 1% and an inhibition (GSK3B (human)) of 64%. The inhibition (IKBKB (human)) was 22%, the inhibition (PAK4 (human)) was 0% and the inhibition (BRSK2 (human)) was 32%. It also gave an inhibition (PKN2 (human)) of 0% and an inhibition (CLK2 (human)) of 57%.
`CC(C)(C)Nc1c(C2CC2)nc2[nH]cnn12` showed an inhibition (SYK (human)) of 7%, an inhibition (IKBKE (human)) of 0% and an inhibition (IGF1R (human)) of 0%. It also gave an inhibition (MAP3K11 (human)) of 0%, an inhibition (PRKCZ (human)) of 0% and an inhibition (HIPK2 (human)) of 22%. For the same compound, the inhibition (CaMK1 (human)) was 22%, the inhibition [1] was 5% and the inhibition (HIPK1 (human)) was 6%. For the same compound, the inhibition (MAPK12 (human)) was 0%, the inhibition (EPHA2 (human)) was 0% and the inhibition (MAP3K7 TAB1 (human)) was 3%. For the same compound, the inhibition (MELK (human)) was 0%, the inhibition (CAMKK2 (human)) was 34% and the inhibition (STK33 (human)) was 0%. The inhibition (MARK2 (human)) was 0%, the inhibition (PIM2 (human)) was 15% and the inhibition [2] was 0%. For the same compound, the inhibition (NEK6 (human)) was 0%, the inhibition (MST4 (human)) was 0% and the inhibition (MAPK1 (human)) was 0%. For the same compound, the inhibition (INSRR (human)) was 0%, the inhibition (MAPK10 (human)) was 1% and the inhibition (EPHB3 (human)) was 68%. It also gave an inhibition (CDK2 CCNA2 (human)) of 33%, an inhibition (PRKCA (human)) of 0% and an inhibition (NTRK1 (human)) of 27%. For the same compound, the inhibition (EPHB1 (human)) was 0%, the inhibition (INSR (human)) was 0% and the inhibition (GSK3B (human)) was 24%. For the same compound, the inhibition (IKBKB (human)) was 11%, the inhibition (PAK4 (human)) was 0% and the inhibition (BRSK2 (human)) was 26%. It also gave an inhibition (PKN2 (human)) of 17% and an inhibition (CLK2 (human)) of 34%.
